According to patent US10703764B2, “Benzopiperazine compositions as BET bromodomain inhibitors” (FORMA Therapeutics, Inc., priority 2013, dated 2020):

Key:
BRD4 BD1 = target: T1, BRD4 BD1 (Homo sapiens, UniProt O60885); assay: AlphaScreen binding assay, BRD4 Bromodomain 1
T1 construct: made in house
Procedure: (§1) The binding of Example compounds to BRD4 Bromodomain 1 and BRD4 Bromodomain 2 was assessed using 384-well AlphaScreen assay technology. His-epitope tagged BRD4 BD144-168 and BRD4 BD2333-460 were cloned, expressed, and purified to homogeneity. BRD4 BD1 and BRD4 BD2 binding and inhibition was assessed by monitoring the engagement of biotinylated Histone H4 (1-21) K5/8/12/16 tetra-acetylated peptide with the targets using the AlphaScreen technology (PerkinElmer). Specifically, in a 384-well black or white flat bottom plate, BRD4 BD1 (50 nM final) or BRD4 BD2 (100 nM final) was combined with peptide (50 nM final for BD1 or 100 nM final for BD2) in 50 mM HEPES (pH 7.3), 100 mM NaCl, 0.1% (w/v) BSA, and 0.01% (w/v) Triton X-100 either in the presence of DMSO (final 1.25% DMSO) or compound dilution series in DMSO. Alpha streptavidin donor beads and Nickel-chelate acceptor beads were added to a final concentration of 10 μg/ml each. After a minimum of 1 hour equilibration, plates were read on a BMG PHERAstar FS multi-label reader (BMG LabTech). The half maximal inhibitory concentration (IC50) values were calculated using IDBS Activity Base software with a four parameter logistic curve fit by the equation y=A+((B−A)/(1+((C/x)^D))), wherein A denotes the bottom plateau of the curve, B denotes the top plateau of the curve, C denotes the x value at the middle of the curve, D denotes the slope factor, x denotes the original known x values, and y denotes the original known y values. Data was fitted using the Levenburg Marquardt algorithm.

BRD4 BD2 = target: T2, BRD4 BD2 (Homo sapiens, UniProt O60885); assay: AlphaScreen binding assay, BRD4 Bromodomain 2
T2 construct: made in house
Procedure: as §1

IC50 (BRD4 BD1) | IC50 (BRD4 BD2) | SMILES
> 10 µM | 0.05 to 0.5 µM | CC(=O)N1c2ccc(-c3ccc(S(C)(=O)=O)cc3)cc2N(C(=O)N(C)C)C[C@@H]1C [Example I-248]
1 to 10 µM | > 0.5 µM | COCCOC(=O)N1C[C@H](C)N(C(C)=O)c2ccc(-c3ccc(S(C)(=O)=O)cc3)cc21 [Example I-249]
> 10 µM | > 0.5 µM | CNC(=O)N1C[C@H](C)N(C(C)=O)c2ccc(-c3ccc(S(C)(=O)=O)cc3)cc21 [Example I-253]
1 to 10 µM | > 0.5 µM | CC(=O)N1c2ccc(-c3ccc(S(C)(=O)=O)cc3)nc2N(C(=O)OC(C)C)C[C@@H]1C [Example I-254]
1 to 10 µM | 0.05 to 0.5 µM | CC(=O)N1c2ccc(-c3cnn(C4CC4)c3)nc2N(C(=O)OC(C)C)C[C@@H]1C [Example I-255]
1 to 10 µM | 0.05 to 0.5 µM | CC(=O)N1c2ccc(-c3cnn(C)c3C)cc2N(C(=O)c2ccco2)C[C@@H]1C [Example I-270]
1 to 10 µM | 0.05 to 0.5 µM | CC(=O)N1c2ncc(-c3ccc(S(C)(=O)=O)cc3)cc2N(C(=O)c2ccco2)C[C@@H]1C [Example I-271]
1 to 10 µM | 0.05 to 0.5 µM | CC(=O)N1c2ncc(-c3ccc(C(=O)N(C)C)cc3)cc2N(C(=O)c2ccco2)C[C@@H]1C [Example I-272]
1 to 10 µM | > 0.5 µM | CCCn1cc(-c2cnc3c(c2)N(C(=O)c2ccco2)C[C@H](C)N3C(C)=O)cn1 [Example I-273]
1 to 10 µM | 0.05 to 0.5 µM | CC(=O)N1c2ccc(-c3cnc(N)nc3)cc2N(C(=O)c2ccco2)C[C@@H]1C [Example I-296]
> 10 µM | > 0.5 µM | CC(=O)N1c2ccc(-c3ccc(S(C)(=O)=O)cc3)cc2N(C(=O)OC(C)C)C[C@H]1C [Example I-297]
1 to 10 µM | 0.05 to 0.5 µM | CC(=O)N1c2ccc(-c3ccc(N4CCCC4)cc3)cc2N(C(=O)c2ccco2)C[C@@H]1C [Example I-298]
1 to 10 µM | 0.05 to 0.5 µM | CC(=O)N1c2ccc(-c3ccc(S(C)(=O)=O)cc3)nc2N(C(=O)c2ccco2)C[C@@H]1C [Example I-300]
1 to 10 µM | > 0.5 µM | CC(=O)N1c2ccc(-c3ccc(S(C)(=O)=O)cc3)nc2N(C(=O)C2CC2)C[C@@H]1C [Example I-301]
1 to 10 µM | 0.05 to 0.5 µM | CC(C)OC(=O)N1C[C@H](C)N(C(=O)C2CC2)c2ccc(-c3cnn(CC(=O)N(C)C)c3)cc21 [Example I-311]
1 to 10 µM | > 0.5 µM | CC(=O)N1c2ccc(-c3c(C)n[nH]c3C)cc2N(C(=O)OC(C)C)CC1C (centres unmarked) [Example I-333]
1 to 10 µM | > 0.5 µM | CC(=O)N1c2ccc(-c3cnn(-c4ccccc4)c3)cc2N(C(=O)OC(C)C)C[C@@H]1C [Example I-334]
1 to 10 µM | > 0.5 µM | CC(=O)N1c2ccc(-c3c[nH]nc3C(F)(F)F)cc2N(C(=O)OC(C)C)CC1C (centres unmarked) [Example I-335]
1 to 10 µM | 0.05 to 0.5 µM | CC(=O)N1c2ccc(-c3cnn(C)c3C)cc2N(C(=O)OC(C)C)C[C@@H]1C [Example I-339]
1 to 10 µM | > 0.5 µM | CC(C)OC(=O)N1C[C@H](C)N(C(=O)C2CC2)c2ccc(-c3cnn(CC(=O)O)c3)cc21 [Example I-340]
1 to 10 µM | 0.05 to 0.5 µM | COC(=O)N1c2ccc(-c3cnn(CC(=O)O)c3)cc2N(C(=O)OC(C)C)C[C@@H]1C [Example I-341]
1 to 10 µM | 0.05 to 0.5 µM | CC(=O)N1c2ccc(-c3cnn(CCO)c3)cc2N(C(=O)C2CC2)C[C@@H]1C [Example I-342]
1 to 10 µM | 0.05 to 0.5 µM | CC(=O)N1c2ccc(-c3cnn(CC(C)(C)O)c3)cc2N(C(=O)C2CC2)C[C@@H]1C [Example I-343]
1 to 10 µM | 0.05 to 0.5 µM | CC(=O)N1c2ccc(-c3cnn(CCS(C)(=O)=O)c3)cc2N(C(=O)C2CC2)CC1C (centres unmarked) [Example I-344]
1 to 10 µM | 0.05 to 0.5 µM | CC(C)OC(=O)N1C[C@H](C)N(C(C)C2CC2)c2ccc(-c3cnn(C4CNC4)c3)cc21 (some centres unmarked) [Example I-357]
1 to 10 µM | 0.05 to 0.5 µM | COC(=O)N1c2ccc(-c3cnn(C4CNC4)c3)cc2N(C(=O)OC(C)C)C[C@@H]1C [Example I-358]
> 10 µM | > 0.5 µM | C[C@H]1CN(C(=O)c2ccco2)c2cc(-c3ccc(S(C)(=O)=O)cc3)ccc2N1C(=O)C(F)(F)F [Example I-361]
> 10 µM | > 0.5 µM | C[C@H]1CN(C(=O)c2ccco2)c2cc(-c3ccc(C(=O)N(C)C)cc3)ccc2N1C(=O)C(F)(F)F [Example I-362]

IC50 (BRD4 BD1) | IC50 (BRD4 BD2) | SMILES
1 to 10 µM | 0.05 to 0.5 µM | CCCn1cc(-c2ccc3c(c2)N(C(=O)c2ccco2)C[C@H](C)N3C(=O)C(F)(F)F)cn1 [Example I-363]
> 10 µM | > 0.5 µM | C[C@H]1CN(C(=O)c2ccco2)c2cc(-c3ccc(S(C)(=O)=O)cc3)ccc2N1C(=O)CO [Example I-367]
> 10 µM | > 0.5 µM | COCC(=O)N1c2ccc(-c3ccc(S(C)(=O)=O)cc3)cc2N(C(=O)c2ccco2)C[C@@H]1C [Example I-368]
> 10 µM | > 0.5 µM | C[C@H]1CN(C(=O)c2ccco2)c2cc(-c3ccc(S(C)(=O)=O)cc3)ccc2N1C(=O)N(C)C [Example I-369]
> 10 µM | > 0.5 µM | CC(C)C(=O)N1c2ccc(-c3ccc(S(C)(=O)=O)cc3)cc2N(C(=O)c2ccco2)C[C@@H]1C [Example I-370]
> 10 µM | > 0.5 µM | CCOC(=O)N1c2ccc(-c3ccc(S(C)(=O)=O)cc3)cc2N(C(=O)c2ccco2)C[C@@H]1C [Example I-371]
> 10 µM | > 0.5 µM | CC(C)OC(=O)N1c2ccc(-c3ccc(S(C)(=O)=O)cc3)cc2N(C(=O)c2ccco2)C[C@@H]1C [Example I-372]
> 10 µM | > 0.5 µM | C[C@H]1CN(C(=O)c2ccco2)c2cc(-c3ccc(S(C)(=O)=O)cc3)ccc2N1C(=O)C1CCCC1 [Example I-373]
1 to 10 µM | > 0.5 µM | C[C@H]1CN(C(=O)c2ccco2)c2cc(-c3ccc(S(C)(=O)=O)cc3)ccc2N1C(=O)C1CCC1 [Example I-374]
> 10 µM | > 0.5 µM | C[C@H]1CN(C(=O)c2ccco2)c2cc(-c3ccc(S(C)(=O)=O)cc3)ccc2N1C(=O)c1ccno1 [Example I-375]
> 10 µM | > 0.5 µM | C[C@H]1CN(C(=O)c2ccco2)c2cc(-c3ccc(S(C)(=O)=O)cc3)ccc2N1C(=O)N1CCCC1 [Example I-376]
0.1 to 1 µM | > 0.5 µM | CCOC(=O)N1C[C@H](C)N(C(=O)OC)c2ccc(-c3cnn(C4CC4)c3)cc21 [Example I-380]
1 to 10 µM | 0.05 to 0.5 µM | CC(=O)N1c2ccc(-c3ccccn3)cc2N(C(=O)c2ccco2)C[C@@H]1C [Example I-381]
1 to 10 µM | 0.05 to 0.5 µM | CC(=O)N1c2ccc(-c3ncccn3)cc2N(C(=O)c2ccco2)C[C@@H]1C [Example I-383]
1 to 10 µM | 0.05 to 0.5 µM | CC(=O)N1c2ccc(-c3cnccn3)cc2N(C(=O)c2ccco2)C[C@@H]1C [Example I-384]
1 to 10 µM | > 0.5 µM | CC(=O)N1c2ccc(-c3ccc4[nH]ccc4c3)cc2N(C(=O)c2ccco2)CC1C (centres unmarked) [Example I-385]
1 to 10 µM | 0.05 to 0.5 µM | CC(=O)N1c2ccc(-c3cccc4c3OCC4)cc2N(C(=O)c2ccco2)C[C@@H]1C [Example I-386]
> 10 µM | > 0.5 µM | CC(=O)N1c2ccc(-c3nccn3C)cc2N(C(=O)c2ccco2)C[C@@H]1C [Example I-388]
> 10 µM | 0.05 to 0.5 µM | CC(=O)N1c2ccc(-c3cncn3C)cc2N(C(=O)c2ccco2)C[C@@H]1C [Example I-389]
1 to 10 µM | 0.05 to 0.5 µM | CC(=O)N1c2ccc(-c3cnoc3)cc2N(C(=O)c2ccco2)C[C@@H]1C [Example I-390]
1 to 10 µM | 0.05 to 0.5 µM | CC(=O)N1c2ccc(-c3cnc4ccccn34)cc2N(C(=O)c2ccco2)C[C@@H]1C [Example I-391]
1 to 10 µM | 0.05 to 0.5 µM | CC(=O)N1c2ccc(-c3ccc(C#N)cn3)cc2N(C(=O)c2ccco2)C[C@@H]1C [Example I-392]
1 to 10 µM | 0.05 to 0.5 µM | CC(=O)N1c2ccc(-c3ccc4nnc(C)n4c3)cc2N(C(=O)c2ccco2)C[C@@H]1C [Example I-393]
0.1 to 1 µM | < 0.05 µM | CC(=O)N1c2ccc(-c3ccc4[nH]c(=O)[nH]c4c3)cc2N(C(=O)c2ccco2)CC1C (centres unmarked) [Example I-394]
0.1 to 1 µM | < 0.05 µM | CC(=O)N1c2ccc(-c3ccc4c(c3)n(C)c(=O)n4C)cc2N(C(=O)c2ccco2)C[C@@H]1C [Example I-395]
1 to 10 µM | 0.05 to 0.5 µM | CC(=O)N1c2ccc(-c3ccc4nncn4n3)cc2N(C(=O)c2ccco2)C[C@@H]1C [Example I-396]
1 to 10 µM | 0.05 to 0.5 µM | CC(=O)N1c2ccc(-c3ccc4[nH]ccc4n3)cc2N(C(=O)c2ccco2)CC1C (centres unmarked) [Example I-397]
